# Measurements from the NIST ThermoML archive (doi:10.1021/je800571y).
# Numbers after ± are expanded uncertainties.
# Assays:
# [1] = xn = mol fraction of the nth substance listed; conditions: 101 kPa, Liquid
# [2] = 101 kPa, Liquid
Structure (SMILES),"mass density ([1]; 293.15 K, x2 = 0)","viscosity ([1]; 293.15 K, x2 = 0)","mass density ([1]; 298.15 K, x2 = 0)","viscosity ([1]; 298.15 K, x2 = 0)","mass density ([1]; 303.15 K, x2 = 0)","viscosity ([1]; 303.15 K, x2 = 0)","mass density ([1]; 308.15 K, x2 = 0)","viscosity ([1]; 308.15 K, x2 = 0)","mass density ([1]; 313.15 K, x2 = 0)","viscosity ([1]; 313.15 K, x2 = 0)",mass density ([2]; 293.15 K),viscosity ([2]; 293.15 K),mass density ([2]; 298.15 K),viscosity ([2]; 298.15 K),mass density ([2]; 303.15 K),viscosity ([2]; 303.15 K),mass density ([2]; 308.15 K),viscosity ([2]; 308.15 K),mass density ([2]; 313.15 K),viscosity ([2]; 313.15 K),also measured
CC(C)O [propan-2-ol] + CCC(C)=O,785.45 ± 0.99 kg/m3,2.226 ± 0.41 mPa·s,781.26 ± 0.98 kg/m3,1.91 ± 0.35 mPa·s,777.97 ± 1.1 kg/m3,1.737 ± 0.32 mPa·s,772.59 ± 1.1 kg/m3,1.524 ± 0.29 mPa·s,768.32 ± 1.1 kg/m3,1.347 ± 0.26 mPa·s,,,,,,,,,,,
CCC(C)O (centres undefined) [butan-2-ol] + CCC(C)=O,806.48 ± 1 kg/m3,3.632 ± 0.64 mPa·s,802.35 ± 1 kg/m3,2.998 ± 0.54 mPa·s,798.96 ± 1.1 kg/m3,2.498 ± 0.45 mPa·s,794.18 ± 1.1 kg/m3,2.054 ± 0.38 mPa·s,790.07 ± 1.1 kg/m3,1.799 ± 0.33 mPa·s,,,,,,,,,,,
CC(C)O [propan-2-ol],,,,,,,,,,,785.45 ± 0.99 kg/m3,2.226 ± 0.41 mPa·s,781.26 ± 0.98 kg/m3,1.91 ± 0.35 mPa·s,777.97 ± 1.1 kg/m3,1.737 ± 0.32 mPa·s,772.59 ± 1.1 kg/m3,1.524 ± 0.29 mPa·s,768.32 ± 1.1 kg/m3,1.347 ± 0.26 mPa·s,
CCC(C)(C)O [2-methylbutan-2-ol],,,,,,,,,,,809.61 ± 1.1 kg/m3,5.108 ± 0.88 mPa·s,805.01 ± 1.1 kg/m3,4.474 ± 0.78 mPa·s,800.41 ± 1.1 kg/m3,3.909 ± 0.69 mPa·s,795.81 ± 1.1 kg/m3,3.387 ± 0.6 mPa·s,791.21 ± 1.2 kg/m3,2.909 ± 0.52 mPa·s,
CCC(C)O (centres undefined) [butan-2-ol],,,,,,,,,,,806.48 ± 1 kg/m3,3.632 ± 0.64 mPa·s,802.35 ± 1 kg/m3,2.998 ± 0.54 mPa·s,798.96 ± 1.1 kg/m3,2.498 ± 0.45 mPa·s,794.18 ± 1.1 kg/m3,2.054 ± 0.38 mPa·s,790.07 ± 1.1 kg/m3,1.799 ± 0.33 mPa·s,
CCC(C)=O [butanone] + CCC(C)(C)O,,,,,,,,,,,,,,,,,,,,,"mass density ([1]; 293.15 K, x1 = 1): 804.92 ± 1.1 kg/m3; viscosity ([1]; 293.15 K, x1 = 1): 0.3956 ± 0.093 mPa·s; mass density ([1]; 298.15 K, x1 = 1): 799.7 ± 1.1 kg/m3; viscosity ([1]; 298.15 K, x1 = 1): 0.2828 ± 0.074 mPa·s; mass density ([1]; 303.15 K, x1 = 1): 794.81 ± 1.1 kg/m3; viscosity ([1]; 303.15 K, x1 = 1): 0.2666 ± 0.071 mPa·s; mass density ([1]; 308.15 K, x1 = 1): 789.78 ± 1.2 kg/m3; viscosity ([1]; 308.15 K, x1 = 1): 0.2601 ± 0.07 mPa·s; mass density ([1]; 313.15 K, x1 = 1): 784.32 ± 1.2 kg/m3; viscosity ([1]; 313.15 K, x1 = 1): 0.2545 ± 0.069 mPa·s"
CC(C)CO [2-methyl-1-propanol],,,,,,,,,,,801.68 ± 0.98 kg/m3,4.037 ± 0.71 mPa·s,797.8 ± 1 kg/m3,3.33 ± 0.59 mPa·s,794.16 ± 1.1 kg/m3,2.875 ± 0.52 mPa·s,790.06 ± 1.1 kg/m3,2.421 ± 0.44 mPa·s,786.7 ± 1.1 kg/m3,1.967 ± 0.36 mPa·s,
CCC(C)=O [butanone],,,,,,,,,,,804.92 ± 1.1 kg/m3,,799.7 ± 1.1 kg/m3,0.2828 ± 0.074 mPa·s,794.81 ± 1.1 kg/m3,0.2666 ± 0.071 mPa·s,789.78 ± 1.2 kg/m3,0.2601 ± 0.07 mPa·s,784.32 ± 1.2 kg/m3,0.2545 ± 0.069 mPa·s,
CC(C)CO [2-methyl-1-propanol] + CCC(C)=O,801.68 ± 0.98 kg/m3,4.037 ± 0.71 mPa·s,797.8 ± 1 kg/m3,3.33 ± 0.59 mPa·s,794.16 ± 1.1 kg/m3,2.875 ± 0.52 mPa·s,790.06 ± 1.1 kg/m3,2.421 ± 0.44 mPa·s,786.7 ± 1.1 kg/m3,1.967 ± 0.36 mPa·s,,,,,,,,,,,
